In US20250154109A1, “SODIUM CHANNEL BLOCKING COMPOUNDS, DERIVATIVES THEREOF, AND METHODS OF THEIR USE” (LATIGO BIOTHERAPEUTICS, INC, priority 2022, published 2025) one finds IC50 data, which are given here for 26 compounds.

The structures appear in SMILES notation. Read-outs that look alike come from different tables or passages of the source. Some results are limits rather than exact numbers.

This test addresses human Nav1.8 (Homo sapiens, UniProt Q9Y5Y9). The experiment in a line: SyncroPatch384PE assay (automated patch clamp). Format: cell-based. Particulars: human Nav1.8/b3 CHO cells. Background: The patch-clamp technique gives a direct electrical read-out from membranes.
Where [1] appears, read: inactivated state block (P2 measurement), read-out: P2 IC50.
[2] abbreviates: resting state block (P1 measurement), read-out: P1 IC50.

Usually IC50 stands for the concentration at which inhibition is half-maximal.

Sequence of human Nav1.8 (Q9Y5Y9 whole entry): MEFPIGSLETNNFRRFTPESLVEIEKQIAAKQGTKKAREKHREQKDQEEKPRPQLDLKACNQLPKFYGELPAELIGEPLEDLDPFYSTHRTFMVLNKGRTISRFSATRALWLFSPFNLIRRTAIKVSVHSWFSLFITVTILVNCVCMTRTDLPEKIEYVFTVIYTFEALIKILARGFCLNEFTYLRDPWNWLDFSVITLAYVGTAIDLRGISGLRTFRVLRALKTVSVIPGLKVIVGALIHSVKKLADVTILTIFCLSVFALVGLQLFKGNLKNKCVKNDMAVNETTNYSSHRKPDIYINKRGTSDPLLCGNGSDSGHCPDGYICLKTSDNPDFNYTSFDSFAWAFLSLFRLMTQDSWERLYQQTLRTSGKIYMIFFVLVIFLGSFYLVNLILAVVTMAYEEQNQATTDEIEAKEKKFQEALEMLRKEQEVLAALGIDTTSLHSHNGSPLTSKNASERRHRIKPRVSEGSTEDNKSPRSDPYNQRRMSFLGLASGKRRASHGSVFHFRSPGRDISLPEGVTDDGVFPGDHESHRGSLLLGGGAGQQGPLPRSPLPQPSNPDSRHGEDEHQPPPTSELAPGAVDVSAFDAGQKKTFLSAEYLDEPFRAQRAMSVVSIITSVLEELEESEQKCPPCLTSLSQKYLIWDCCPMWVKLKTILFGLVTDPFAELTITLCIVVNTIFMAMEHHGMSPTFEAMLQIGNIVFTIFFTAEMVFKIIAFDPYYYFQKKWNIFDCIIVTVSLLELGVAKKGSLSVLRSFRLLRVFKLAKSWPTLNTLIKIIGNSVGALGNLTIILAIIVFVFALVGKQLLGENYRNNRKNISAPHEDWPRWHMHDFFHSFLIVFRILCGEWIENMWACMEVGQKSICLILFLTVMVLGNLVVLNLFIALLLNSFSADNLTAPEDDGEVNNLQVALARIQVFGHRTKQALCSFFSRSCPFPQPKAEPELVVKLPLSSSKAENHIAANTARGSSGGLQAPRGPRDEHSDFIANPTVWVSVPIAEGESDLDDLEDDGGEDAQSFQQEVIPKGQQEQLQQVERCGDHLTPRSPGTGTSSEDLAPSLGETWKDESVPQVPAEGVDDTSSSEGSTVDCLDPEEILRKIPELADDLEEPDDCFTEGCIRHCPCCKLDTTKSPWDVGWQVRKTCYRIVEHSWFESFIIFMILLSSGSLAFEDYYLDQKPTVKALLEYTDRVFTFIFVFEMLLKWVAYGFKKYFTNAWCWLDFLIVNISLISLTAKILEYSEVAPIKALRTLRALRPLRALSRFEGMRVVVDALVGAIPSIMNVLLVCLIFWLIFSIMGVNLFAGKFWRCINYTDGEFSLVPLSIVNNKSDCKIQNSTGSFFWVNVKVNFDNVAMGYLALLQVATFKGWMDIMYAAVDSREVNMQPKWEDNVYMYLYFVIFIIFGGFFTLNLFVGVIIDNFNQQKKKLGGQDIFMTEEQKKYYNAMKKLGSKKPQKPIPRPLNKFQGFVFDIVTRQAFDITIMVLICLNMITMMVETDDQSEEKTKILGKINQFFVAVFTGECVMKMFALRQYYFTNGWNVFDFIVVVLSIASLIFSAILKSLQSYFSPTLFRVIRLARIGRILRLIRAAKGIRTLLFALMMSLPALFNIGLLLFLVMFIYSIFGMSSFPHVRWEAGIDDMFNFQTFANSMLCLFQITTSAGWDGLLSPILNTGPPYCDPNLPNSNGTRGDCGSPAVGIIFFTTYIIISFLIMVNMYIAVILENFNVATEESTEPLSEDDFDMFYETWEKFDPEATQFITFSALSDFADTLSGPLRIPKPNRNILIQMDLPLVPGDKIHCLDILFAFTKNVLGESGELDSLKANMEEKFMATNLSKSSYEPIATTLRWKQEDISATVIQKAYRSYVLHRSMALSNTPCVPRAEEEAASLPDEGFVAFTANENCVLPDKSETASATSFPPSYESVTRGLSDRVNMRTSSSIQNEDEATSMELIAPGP

Regarding `CNCC(=O)N=[S@](C)(=O)c1cccc(NC(=O)c2c(N3CCCC(F)(F)CC3)ncc(-c3ccc(F)c(F)c3)c2C)c1` [Example 60, (R)-2-(4,4-difluoroazepan-1-yl)-5-(3,4-difluorophenyl)-4-methyl-N-(3-(S-methyl-N-(methylglycyl)sulfonimidoyl)phenyl)nicotinamide], the IC50 runs as follows: under setting [1], at most 5 nM; under setting [2], at most 5 nM.

On to `Cc1c(C#N)c(C(F)(F)F)nc(N2CCCC(F)(F)CC2)c1C(=O)Nc1cccc([S@@](C)(=O)=NCCN)c1` [Example 196, (R)-N-(3-(N-(2-aminoethyl)-S-methylsulfonimidoyl)phenyl)-5-cyano-2-(4,4-difluoroazepan-1-yl)-4-methyl-6-(trifluoromethyl)nicotinamide], for which the IC50 was at most 5 nM under setting [1] and at most 5 nM under setting [2].

On to `Cc1c(-c2ccc(C(F)F)cc2)nnc(N2CCCC(F)(F)CC2)c1C(=O)Nc1cccc([S@](C)(=N)=O)c1` [Example 167, (R)-3-(4,4-difluoroazepan-1-yl)-6-(4-(difluoromethyl)phenyl)-5-methyl-N-(3-(S-methylsulfonimidoyl)phenyl)pyridazine-4-carboxamide], for which the IC50 by setting is: under setting [1], 5 to 50 nM; under setting [2], 5 to 50 nM.

Turning to `NC(=O)c1cccc(NC(=O)c2nnc(C(F)(F)F)cc2N2CCCC(F)(F)CC2)c1` [Example 38, N-(3-Carbamoylphenyl)-4-(4,4-difluoroazepan-1-yl)-6-(trifluoromethyl)pyridazine-3-carboxamide], the IC50 was above 200 nM under setting [1] and above 200 nM under setting [2].

`C[S@+]([O-])c1cc(NC(=O)c2cc(Cl)c(C(F)(F)F)cc2N2CCCC(F)(F)CC2)ccc1F` [Example 205, (S)-5-chloro-2-(4,4-difluoroazepan-1-yl)-N-(4-fluoro-3-(methylsulfinyl)phenyl)-4-(trifluoromethyl)benzamide]: the IC50 is at most 5 nM under setting [1] and at most 5 nM under setting [2].

Regarding `Cc1c(-c2cc(F)cc(F)c2)cnc(N2CCCC(F)(F)CC2)c1C(=O)Nc1cccc([S@](C)(=N)=O)c1` [Example 61, (R)-2-(4,4-difluoroazepan-1-yl)-5-(3,5-difluorophenyl)-4-methyl-N-(3-(S-methylsulfonimidoyl)phenyl)nicotinamide], the IC50 under setting [1] is at most 5 nM and the IC50 under setting [2] was at most 5 nM.

`Cc1nn(C)cc1-c1cnc(N2CCCC(F)(F)CC2)c(C(=O)Nc2cccc([S@](C)(=N)=O)c2)c1C` [Example 146, (R)-2-(4,4-difluoroazepan-1-yl)-5-(1,3-dimethyl-1H-pyrazol-4-yl)-4-methyl-N-(3-(S-methylsulfonimidoyl)phenyl)nicotinamide]: the IC50 runs as follows: under setting [1], above 200 nM; under setting [2], above 200 nM.

As for `Cc1c(-c2cnn(C)c2)cnc(N2CCCC(F)(F)CC2)c1C(=O)Nc1cccc(S(C)(=N)=O)c1` (stereo not shown) [Example 83, 2-(4,4-difluoroazepan-1-yl)-4-methyl-5-(1-methyl-1H-pyrazol-4-yl)-N-(3-(S-methylsulfonimidoyl)phenyl)nicotinamide], the IC50 is 50 to 100 nM under setting [1] and 50 to 100 nM under setting [2].

Turning to `Cc1c(-c2cccc(F)c2)cnc(N2CCCC(F)(F)CC2)c1C(=O)Nc1cccc([S@@](C)(=N)=O)c1` [Example 111, (S)-2-(4,4-difluoroazepan-1-yl)-5-(3-fluorophenyl)-4-methyl-N-(3-(S-methylsulfonimidoyl)phenyl)nicotinamide], the half-maximal inhibitory concentration (IC50) by setting is: under setting [1], at most 5 nM; under setting [2], at most 5 nM.

`C[S@@](=N)(=O)c1cc(NC(=O)c2cc(Cl)c(C(F)(F)F)cc2N2CCO[C@@H](C(F)(F)F)C2)ccn1` [Example 217, 5-chloro-N-(2-((R)—S-methylsulfonimidoyl)pyridin-4-yl)-4-(trifluoromethyl)-2-((R)-2-(trifluoromethyl)morpholino)benzamide]: the IC50 by setting is: under setting [1], 50 to 100 nM; under setting [2], 50 to 100 nM.

With `Cc1c(-c2ccn(C)n2)cnc(N2CCCC(F)(F)CC2)c1C(=O)Nc1cccc(S(C)(=N)=O)c1` (stereo not shown) [Example 89, 2-(4,4-difluoroazepan-1-yl)-4-methyl-5-(1-methyl-1H-pyrazol-3-yl)-N-(3-(S-methylsulfonimidoyl)phenyl)nicotinamide], the IC50 under setting [1] lay in the range of 100 to 200 nM and the IC50 under setting [2] fell in the range of 100 to 200 nM.

As to `Cc1c(C(F)(F)F)nnc(N2CCCC(F)(F)CC2)c1C(=O)Nc1cccc([S@@](C)(=O)=NC(=O)[C@@H](C)N)c1` [Example 183, N-(3-((R)-N-(D-alanyl)-S-methylsulfonimidoyl)phenyl)-3-(4,4-difluoroazepan-1-yl)-5-methyl-6-(trifluoromethyl)pyridazine-4-carboxamide], the IC50 is, setting by setting: under setting [1], at most 5 nM; under setting [2], at most 5 nM.

For `Cc1c(C(=O)Nc2cccc([S@@](C)(=O)=NC(=O)CN)c2)c(N2CCCC(F)(F)CC2)nc(C(F)(F)F)c1-c1cnn(C)c1` [Example 184, (R)-2-(4,4-difluoroazepan-1-yl)-N-(3-(N-glycyl-S-methylsulfonimidoyl)phenyl)-4-methyl-5-(1-methyl-1H-pyrazol-4-yl)-6-(trifluoromethyl)nicotinamide], the IC50 by setting is: under setting [1], at most 5 nM; under setting [2], at most 5 nM.

In the case of `Cc1ccc(-c2nnc(N3CCCC(F)(F)CC3)c(C(=O)Nc3cccc([S@](C)(=N)=O)c3)c2C)cc1` [Example 225, (R)-3-(4,4-difluoroazepan-1-yl)-5-methyl-N-(3-(S-methylsulfonimidoyl)phenyl)-6-(p-tolyl)pyridazine-4-carboxamide], the IC50 under setting [1] fell in the range of 5 to 50 nM and the IC50 under setting [2] was 5 to 50 nM.

With `C[S@](=N)(=O)c1cccc(NC(=O)c2cc(C(F)(F)F)nnc2N2CCCC(F)(F)CC2)c1` [Example 19, (S)-3-(4,4-difluoroazepan-1-yl)-N-(3-(S-methylsulfonimidoyl)phenyl)-6-(trifluoromethyl)pyridazine-4-carboxamide], the IC50 runs as follows: under setting [1], 100 to 200 nM; under setting [2], above 200 nM.

In the case of `CNCC(=O)N=[S@@](C)(=O)c1cccc(NC(=O)c2c(N3CCCC(F)(F)CC3)nnc(C(F)(F)F)c2C)c1` [Example 44, (S)-3-(4,4-difluoroazepan-1-yl)-5-methyl-N-(3-(S-methyl-N-(methylglycyl)sulfonimidoyl)phenyl)-6-(trifluoromethyl)pyridazine-4-carboxamide], the IC50 under setting [1] fell in the range of 5 to 50 nM and the IC50 under setting [2] was in the range of 5 to 50 nM.

Turning to `Cc1c(Br)cnc(N2CCCC(F)(F)CC2)c1C(=O)Nc1cccc(S(C)(=N)=O)c1` (stereo not shown) [Example 86, 5-bromo-2-(4,4-difluoroazepan-1-yl)-4-methyl-N-(3-(S-methylsulfonimidoyl)phenyl)nicotinamide], the IC50 was at most 5 nM under setting [1] and at most 5 nM under setting [2].

Consider `Cc1c(-c2ccccn2)cnc(N2CCCC(F)(F)CC2)c1C(=O)Nc1cccc(S(C)(=N)=O)c1` (stereo not shown) [Example 99, 6 C(4,4-difluoroazepan-1-yl)-4methyl-N-(3-(S-methylsulfonimidoyl)phenyl)-[2,3bipyridine]-5carboxamide], for which the IC50 lay within 100 to 200 nM under setting [1] and 100 to 200 nM under setting [2].

In the case of `Cc1c(-c2cnn(C)c2)cnc(N2CCCC(F)(F)CC2)c1C(=O)Nc1cccc([S@@](C)(=O)=NC(=O)[C@@H](C)O)c1` [Example 230, 2-(4,4-difluoroazepan-1-yl)-N-(3-((R)-N-((R)-2-hydroxypropanoyl)-S-methylsulfonimidoyl)phenyl)-4-methyl-5-(1-methyl-1H-pyrazol-4-yl)nicotinamide], the IC50 under setting [1] lay in the range of 5 to 50 nM and the IC50 under setting [2] lay in the range of 5 to 50 nM.

Consider `Cc1c(-c2ccc(F)c(F)c2)cnc(N2CCCC(F)(F)CC2)c1C(=O)Nc1cccc([S@](C)(=N)=O)c1` [Example 59, (R)-2-(4,4-difluoroazepan-1-yl)-5-(3,4-difluorophenyl)-4-methyl-N-(3-(S-methylsulfonimidoyl)phenyl)nicotinamide], for which the IC50 under setting [1] was at most 5 nM and the IC50 under setting [2] is at most 5 nM.

As to `Cc1c(C#N)cnc(N2CCCC(F)(F)CC2)c1C(=O)Nc1cccc(S(C)(=N)=O)c1` (stereo not shown) [Example 97, 5-cyano-2-(4,4-difluoroazepan-1-yl)-4-methyl-N-(3-(S-methylsulfonimidoyl)phenyl)nicotinamide], the IC50 is, setting by setting: under setting [1], 5 to 50 nM; under setting [2], 5 to 50 nM.

`Cc1c(-c2cnn(C(F)F)c2)cnc(N2CCCC(F)(F)CC2)c1C(=O)Nc1cccc([S@](C)(=N)=O)c1` [Example 159, (R)-2-(4,4-difluoroazepan-1-yl)-5-(1-(difluoromethyl)-1H-pyrazol-4-yl)-4-methyl-N-(3-(S-methylsulfonimidoyl)phenyl)nicotinamide]: the half-inhibitory concentration (IC50) was 5 to 50 nM under setting [1] and 5 to 50 nM under setting [2].

As for `C=CCCc1ccc(C(=O)Nc2cccc([S@](C)(=N)=O)c2)c(N2CCCC(F)(F)CC2)n1` [Example 35, (R)-6-(But-3-en-1-yl)-2-(4,4-difluoroazepan-1-yl)-N-(3-(S-methylsulfonimidoyl)phenyl)nicotinamide], the IC50 by setting is: under setting [1], at most 5 nM; under setting [2], at most 5 nM.

Consider `Cc1c(C2CNC2)cnc(N2CCCC(F)(F)CC2)c1C(=O)Nc1cccc(S(C)(=N)=O)c1` (stereo not shown) [Example 173, 5-(azetidin-3-yl)-2-(4,4-difluoroazepan-1-yl)-4-methyl-N-(3-(S-methylsulfonimidoyl)phenyl)nicotinamide], for which the IC50 runs as follows: under setting [1], 100 to 200 nM; under setting [2], above 200 nM.

As to `Cc1ccc(-c2cnc(N3CCCC(F)(F)CC3)c(C(=O)Nc3cccc(S(C)(=N)=O)c3)c2C)cc1` (stereo not shown) [Example 96, 2-(4,4-difluoroazepan-1-yl)-4-methyl-N-(3-(S-methylsulfonimidoyl)phenyl)-5-(p-tolyl)nicotinamide], the IC50 is at most 5 nM under setting [1] and at most 5 nM under setting [2].

For `Cc1c(N2CC(F)(F)C2)cnc(N2CCCC(F)(F)CC2)c1C(=O)Nc1cccc([S@](C)(=N)=O)c1` [Example 149, (R)-2-(4,4-difluoroazepan-1-yl)-5-(3,3-difluoroazetidin-1-yl)-4-methyl-N-(3-(S-methylsulfonimidoyl)phenyl)nicotinamide], the IC50 lay in the range of 5 to 50 nM under setting [1] and 5 to 50 nM under setting [2].
